The text below walks through data of patent US6043212A, “Recombinant C140 receptor, its agonists and antagonists, and nucleic acids encoding the receptor” (COR Therapeutics, Inc., priority 1995, dated 2000).

The structures appear in SMILES notation. Peptide text beside a SMILES is read from it.

For this test, the target named is T1, wild-type mouse C140 receptor (Mus musculus, UniProt P55086).
T1 construct: Native receptors were produced by cloning the coding region of the receptor gene; expressed in transfected cells; host or cells: Xenopus laevis oocytes injected with capped cRNA from pSG-5 C140
T1 sequence (P55086 32-399 limits assumed): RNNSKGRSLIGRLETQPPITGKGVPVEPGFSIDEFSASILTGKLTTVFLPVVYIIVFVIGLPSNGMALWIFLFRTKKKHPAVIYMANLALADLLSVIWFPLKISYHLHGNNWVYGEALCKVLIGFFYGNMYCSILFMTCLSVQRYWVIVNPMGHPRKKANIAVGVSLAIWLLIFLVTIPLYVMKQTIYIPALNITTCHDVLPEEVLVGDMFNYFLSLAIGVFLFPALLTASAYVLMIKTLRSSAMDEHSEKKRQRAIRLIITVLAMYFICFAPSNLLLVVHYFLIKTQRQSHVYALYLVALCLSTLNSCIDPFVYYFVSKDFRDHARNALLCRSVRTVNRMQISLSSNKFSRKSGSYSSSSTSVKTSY
The test is described as follows: 45Ca release by Xenopus oocytes expressing wild-type mouse C140 receptor. The format is cell-based. Conditions: Table 2; peptides at 100 μM; wild-type mouse C140 receptor in oocytes. How it is done:
Agonist-induced increases in ^45 Ca release by oocytes expressing cRNA encoding C140 receptor or other recombinant cells producing C140 receptor are assessed by published techniques (Williams, J. A., et al., Proc Natl Acad Sci USA (1988) 85:4939-4943). Briefly, intracellular calcium pools are labeled by incubating groups of 30 oocytes in 300 μl calcium-free modified Barth's solution (MBSH) containing 50 μCi ^45 CaCl2 (10-40 mCi/mg Ca; Amersham) for 4 hours at RT. The labeled oocytes or cells are washed, then incubated in MBSH II without antibiotics for 90 minutes. Groups of 5 oocytes are selected and placed in individual wells in a 24-well tissue culture plate (Falcon 3047) containing 0.5 ml/well MBSH II without antibiotics. This medium is removed and replaced with fresh medium every 10 minutes; the harvested medium is analyzed by scintillation counting to determine ^45 Ca released by the oocytes during each 10-minute incubation. The 10-minute incubations are continued until a stable baseline of ^45 Ca release per unit time is achieved. Two additional 10-minute collections are obtained, then test medium including agonist is added and agonist-induced ^45 Ca release determined.
Oocytes from Xenopus laevis were harvested and prepared using published techniques (Coleman, A., in Hames, B. D., and Higgins, S. J., eds, Transcription and Translation: A Practical Approach, IRL Press, pp. 271-302; Williams, J. A., et al. Proc Natl Acad Sci USA (1988) 85:4939-4943]. To remove follicular cells, oocytes were incubated for 1.5 h with shaking in calcium-free Barth's containing 2 mg/ml each of collagenase 1A and hyaluronidase 1S. The oocytes were then washed five times in regular Barth's and incubated at 18° C. in Barth's medium containing 100 U/ml penicillin, 100 μg/ml streptomycin, and 2.5 mM sodium pyruvate. Stage V oocytes were selected and injected with 30 nl of cRNA (0.33 μg/μl water) or water alone, and then incubated with 0.25 ml of medium in groups of four/well in a 96-well culture plate. After 36 hours the oocytes were incubated with ^45 Ca (250 μCi/ml). After 12 h incubation the oocytes were washed and 0.2 ml of medium added and replaced every five minutes. The harvested medium was analyzed by scintillation counting. After five replacements to determine the baseline release of ^45 Ca, test medium with the agonist, e.g. SLIGRL (SEQ ID NO: 23), was added and the evoked ^45 Ca-release determined.
Oocytes were injected with capped cRNA (ca 10 ng) encoding wild-type mouse C140 receptor (WT) or either of the three mutant receptors 35Pro, 35Arg and 35His. After 36 hours, cRNA-injected and control water-injected, oocytes were loaded with ^45 Ca, and 12 hours thereafter peptide or trypsin-induced ^45 Ca release were determined as described above. The peptide SLIGRL (SEQ ID NO: 23) was added at 100 μM, and trypsin at 300 pM. The stimulation with the peptide was done on the same group of oocytes after the stimulation with trypsin. The data shown in Table 1 represent the mean of three replicate determinations, and denotes the increase compared to oocytes injected with water.
Various peptides were tested at 100 μM in the assay above using wild-type mouse C140 receptor, expressed in oocytes.
As to `CC(C)C[C@H](NC(=O)[C@H](Cc1ccccc1)NC(=O)[C@H](Cc1ccccc1)NC(=O)[C@@H](N)CO)C(=O)N[C@@H](CCCNC(=N)N)C(=O)N[C@@H](Cc1c[nH]c2ccccc12)C(=O)O` [SFFLRW, reference compound] (H-SFFLRW-OH), the “Fold increase in 45Ca” value was found to be 1.7 fold.

As for `CC[C@H](C)[C@H](NC(=O)[C@H](CC(C)C)NC(=O)[C@@H](N)CO)C(=O)NCC(=O)N[C@@H](CCCNC(=N)N)C(=O)N[C@@H](C)C(=O)O` [SLIGRA] (H-SLIGRA-OH), the “Fold increase in 45Ca” value is 8.5 fold.

With `CC[C@H](C)[C@H](NC(=O)[C@H](CC(C)C)NC(=O)[C@@H](N)CO)C(=O)NCC(=O)N[C@@H](C)C(=O)N[C@@H](CC(C)C)C(=O)O` [SLIGAL] (H-SLIGAL-OH), the “Fold increase in 45Ca” value is recorded as 0 fold.

As to `CC[C@H](C)[C@H](NC(=O)[C@H](CC(C)C)NC(=O)[C@@H](N)CO)C(=O)N[C@@H](C)C(=O)N[C@@H](CCCNC(=N)N)C(=O)N[C@@H](CC(C)C)C(=O)O` [SLIARL] (H-SLIARL-OH), the “Fold increase in 45Ca” value is reported as 4.3 fold.

As to `CC(C)C[C@H](NC(=O)[C@H](CCCNC(=N)N)NC(=O)CNC(=O)[C@H](C)NC(=O)[C@H](CC(C)C)NC(=O)[C@@H](N)CO)C(=O)O` [SLAGRL] (H-SLAGRL-OH), the “Fold increase in 45Ca” value was 0 fold.

As to `CC[C@H](C)[C@H](NC(=O)[C@H](CC(C)C)NC(=O)[C@H](C)N)C(=O)NCC(=O)N[C@@H](CCCNC(=N)N)C(=O)N[C@@H](CC(C)C)C(=O)O` [ALIGRL] (H-ALIGRL-OH), the “Fold increase in 45Ca” value was 1.3 fold.

For the molecule `CC[C@H](C)[C@H](NC(=O)[C@H](C)NC(=O)[C@@H](N)CO)C(=O)NCC(=O)N[C@@H](CCCNC(=N)N)C(=O)N[C@@H](CC(C)C)C(=O)O` [SAIGRL] (H-SAIGRL-OH), the “Fold increase in 45Ca” value is listed as 0 fold.
